According to BindingDB's records for doi:10.1007/s10822-022-00478-x (Roche Innovation Center Basel, F. Hoffmann-La Roche Ltd., 2022):
pIC50: −log10 of the molar value.

Molecular target: cAMP and cAMP-inhibited cGMP 3',5'-cyclic phosphodiesterase 10A (Homo sapiens, UniProt Q9Y233)
Experiment: PDE10A assay
How it was run: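 Human PDE10A (2 ng/well) preincubated 15 min RT with compound in HEPES pH 7.5, 10 mM MgCl2, BSA, then reacted 15 min with 50 nM [3H]cGMP/cGMP substrate. Stopped with Y-Si SPA beads; bound radioactivity counted, IC50 from four-parameter logistic, pIC50 = −log10(IC50).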

CCOC(=O)c1cc(NC(=O)c2c(C(=O)N3CCC3)cnn2C)nn1C [Roche-Dataset for PDE10A, Compound 959] was tested, and the pIC50 was 5.87.

CCOC(=O)c1cnn(C)c1C(=O)Nc1cn(-c2ccccn2)cn1 [Roche-Dataset for PDE10A, Compound 960] showed a pIC50 of 5.57.

Cc1ncc(C)n2nc(CCc3nc(-c4cn[nH]c4)nn3C)nc12 [Roche-Dataset for PDE10A, Compound 961] was tested, and the pIC50 was 7.06.

CCCc1cccc(NC(=O)c2nc(C3CC3)cnc2Nc2cncnc2)n1 [Roche-Dataset for PDE10A, Compound 963] gave a pIC50 of 7.80.

Cc1ncc(C)n2nc(/C=C/c3nc(Br)cn3C3CC3)nc12 [Roche-Dataset for PDE10A, Compound 964] gave a pIC50 of 5.18.

Work on COc1ccc2c(c1)c(=O)n(C)c1c(C)nc(-c3ccccc3Cl)n21 [Roche-Dataset for PDE10A, Compound 965] yielded a pIC50 of 8.11.

Work on CCCCc1cc(NC(=O)c2c(C(=O)N3CCC3)cnn2C)nn1C1CCCC1 [Roche-Dataset for PDE10A, Compound 966] yielded a pIC50 of 6.25.

Cc1nc(-c2ccccc2Cl)n2c3ccc(Cl)cc3c(=O)n(C)c12 [Roche-Dataset for PDE10A, Compound 967] gave a pIC50 of 7.82.

In the case of CC(C)(C)OCCCNC(=O)c1nc(C2CC2)cnc1Nc1cncnc1 [Roche-Dataset for PDE10A, Compound 968], the pIC50 was 6.53.

In the case of Cn1ncc(C(=O)N2CCC2)c1C(=O)Nc1ccn(Cc2ccc(Cl)cc2)n1 [Roche-Dataset for PDE10A, Compound 970], the pIC50 was 6.92.

Work on CNC(=O)[C@@H]1CCC[C@H]1NC(=O)c1nc(C2CC2)cnc1Nc1cncnc1 [Roche-Dataset for PDE10A, Compound 971] yielded a pIC50 of 5.94.

Cc1c(Cl)cc(Cl)c2nc(CCc3nccn3C)nn12 [Roche-Dataset for PDE10A, Compound 972] showed a pIC50 of 6.78.

For CC(=O)c1ccc(NC(=O)c2nc(C3CC3)ccc2Nc2cncnc2)s1 [Roche-Dataset for PDE10A, Compound 974], the pIC50 was 7.44.

Molecule O=C(c1nc(C2CC2)cnc1Nc1cncnc1)N1CCN(c2ccccc2F)CC1 [Roche-Dataset for PDE10A, Compound 975] has a pIC50 of 5.21.

CC(C)(C)CC(C)(C)NC(=O)c1nc(C2CC2)cnc1Nc1cncnc1 [Roche-Dataset for PDE10A, Compound 976] was tested, and the pIC50 was 6.08.

Molecule COc1ccc(Cn2ccc(NC(=O)c3c(C(=O)N4CCC4)cnn3C)n2)cc1 [Roche-Dataset for PDE10A, Compound 977] has a pIC50 of 7.10.

Work on Cn1ncc(C(=O)N2CCC2)c1C(=O)Nc1ccn(Cc2ccncc2)n1 [Roche-Dataset for PDE10A, Compound 978] yielded a pIC50 of 6.72.

Cc1ncoc1C(=O)Nc1cc(-c2ccccn2)nn1C [Roche-Dataset for PDE10A, Compound 979] was tested, and the pIC50 was 5.57.

In the case of Cc1c(Cl)cc(Cl)c2nc(CCc3ccn(C)n3)nn12 [Roche-Dataset for PDE10A, Compound 980], the pIC50 was 6.51.

In the case of COc1ccc2c(=O)n(C)c3c(C)nc(-c4cccc(Cl)c4)n3c2c1 [Roche-Dataset for PDE10A, Compound 981], the pIC50 was 7.15.

Work on Cc1nc2cc(Cl)ccc2nc1OCc1nc(N2CCCC2)nn1C [Roche-Dataset for PDE10A, Compound 982] yielded a pIC50 of 7.55.

Cc1ncc(C)n2nc(CCc3nc(N4CCCOCC4)nn3C)nc12 [Roche-Dataset for PDE10A, Compound 984] showed a pIC50 of 5.90.

With CCCCc1cc(NC(=O)c2c(C(=O)N3CCC3)cnn2C)[nH]n1 [Roche-Dataset for PDE10A, Compound 985] the pIC50 was 5.31.

Molecule Cc1nc(CCNC(=O)c2nc(C3CC3)ccc2Nc2cncnc2)n[nH]1 [Roche-Dataset for PDE10A, Compound 986] has a pIC50 of 6.57.

Cc1nc(-c2ccccc2Cl)n2c3cc(Cl)ccc3c(=O)n(C)c12 [Roche-Dataset for PDE10A, Compound 987] gave a pIC50 of 8.18.

For O=C(NCC1CCOCC1)c1nc(C2CC2)cnc1Nc1cncnc1 [Roche-Dataset for PDE10A, Compound 988], the pIC50 was 5.24.

Work on Cc1cncc(CCc2nc(N3CCCC3)nn2C)n1 [Roche-Dataset for PDE10A, Compound 989] yielded a pIC50 of 5.10.

O=C(Nc1conc1-c1ccccn1)c1nc(C2CC2)ccc1Nc1cncnc1 [Roche-Dataset for PDE10A, Compound 990] gave a pIC50 of 7.82.

For Cn1ncc(C(=O)N2CCC2)c1C(=O)Nc1cc(C2CCCCC2)n[nH]1 [Roche-Dataset for PDE10A, Compound 991], the pIC50 was 5.03.

With CC(=O)N1CCC(NC(=O)c2nc(C3CC3)cnc2Nc2cncnc2)CC1 [Roche-Dataset for PDE10A, Compound 993] the pIC50 was 5.00.

In the case of Cc1ncn(-c2ccccc2)c1C(=O)Nc1cc(-c2ccccn2)nn1C [Roche-Dataset for PDE10A, Compound 994], the pIC50 was 5.67.

Work on O=C(Nc1cnccc1Cl)c1nc(C2CC2)ccc1Nc1cncnc1 [Roche-Dataset for PDE10A, Compound 995] yielded a pIC50 of 7.68.

With Cc1c(Cl)cc(Cl)c2nc(CCc3nccs3)nn12 [Roche-Dataset for PDE10A, Compound 996] the pIC50 was 6.29.

With CNC(=O)[C@H]1CCC[C@@H]1NC(=O)c1nc(C2CC2)cnc1Nc1cncnc1 [Roche-Dataset for PDE10A, Compound 1000] the pIC50 was 6.16.

With O=C(Nc1cn(-c2ccccn2)cn1)c1nc(C2CC2)ccc1Br [Roche-Dataset for PDE10A, Compound 1003] the pIC50 was 6.36.

Molecule O=C(Nc1ccnn1S(=O)(=O)C(F)(F)F)c1nc(C2CC2)ccc1Nc1cncnc1 [Roche-Dataset for PDE10A, Compound 1004] has a pIC50 of 7.52.

With CN(C)C(=O)c1cc(NC(=O)c2nc(C3CC3)ccc2Nc2cncnc2)nn1C [Roche-Dataset for PDE10A, Compound 1005] the pIC50 was 6.17.

Molecule CC(C)(NC(=O)c1nc(C2CC2)cnc1Nc1cncnc1)c1nnc(-c2cccnc2)o1 [Roche-Dataset for PDE10A, Compound 1006] has a pIC50 of 5.84.

Work on Cc1nc2ccc(NC(=O)c3c(C(=O)N4CCC4)cnn3C)cn2n1 [Roche-Dataset for PDE10A, Compound 1007] yielded a pIC50 of 5.43.

Molecule O=C(c1nc(C2CC2)cnc1Nc1cncnc1)N1CCN(Cc2ccccc2)CC1 [Roche-Dataset for PDE10A, Compound 1008] has a pIC50 of 6.43.

Molecule Cn1ncc(C(=O)N2CCOCC2)c1C(=O)N[C@H]1CCn2cc(-c3ccccc3Cl)nc2C1 [Roche-Dataset for PDE10A, Compound 1009] has a pIC50 of 6.36.

COCC1(CNC(=O)c2nc(C3CC3)cnc2Nc2cncnc2)CC1 [Roche-Dataset for PDE10A, Compound 1010] showed a pIC50 of 5.75.

Molecule COc1cccc(NC(=O)c2nc(C3CC3)cnc2Nc2cncnc2)n1 [Roche-Dataset for PDE10A, Compound 1011] has a pIC50 of 7.31.

Molecule CC(C)n1nc(NC(=O)c2nc(C3CC3)ccc2Nc2cncnc2)cc1C(=O)N(C)C [Roche-Dataset for PDE10A, Compound 1013] has a pIC50 of 6.10.

O=C(c1nc(C2CC2)cnc1Nc1cncnc1)N1CCN(CCc2ccccc2)CC1 [Roche-Dataset for PDE10A, Compound 1015] showed a pIC50 of 5.00.

Molecule CC(=O)c1nn(C)cc1NC(=O)c1nc(C2CC2)cnc1Nc1cncnc1 [Roche-Dataset for PDE10A, Compound 1016] has a pIC50 of 7.31.

O=C(NCc1ccncn1)c1nc(C2CC2)cnc1Nc1cncnc1 [Roche-Dataset for PDE10A, Compound 1017] showed a pIC50 of 6.11.

Molecule CNC(=O)c1cc(NC(=O)c2c(C(=O)N3CCC3)cnn2C)nn1C [Roche-Dataset for PDE10A, Compound 1021] has a pIC50 of 5.00.

Molecule CC(C)(C)CCNC(=O)c1nc(C2CC2)cnc1Nc1cncnc1 [Roche-Dataset for PDE10A, Compound 1022] has a pIC50 of 5.63.

With Cn1ncc(C(=O)N2CCC2)c1C(=O)Nc1ccnn1-c1ccccn1 [Roche-Dataset for PDE10A, Compound 1024] the pIC50 was 6.89.

With Cc1nc2ccccc2nc1OCc1csc(N2CCCC2)n1 [Roche-Dataset for PDE10A, Compound 1025] the pIC50 was 7.19.

CNC(=O)c1cccc(NC(=O)c2nc(C3CC3)cnc2Nc2cncnc2)n1 [Roche-Dataset for PDE10A, Compound 1026] gave a pIC50 of 6.77.

Molecule COCCCNC(=O)c1nc(C2CC2)cnc1Nc1cncnc1 [Roche-Dataset for PDE10A, Compound 1027] has a pIC50 of 6.03.

With O=C(NCc1cncs1)c1nc(C2CC2)cnc1Nc1cncnc1 [Roche-Dataset for PDE10A, Compound 1028] the pIC50 was 6.05.

Molecule Cn1cc(C(=O)Nc2ccn3cc(-c4ccccc4)nc3n2)c(C(=O)NCc2ccccn2)n1 [Roche-Dataset for PDE10A, Compound 1029] has a pIC50 of 6.40.

In the case of Cn1ncc(C(=O)N2CCC2)c1C(=O)Nc1ccn(CCN2CCOCC2)n1 [Roche-Dataset for PDE10A, Compound 1030], the pIC50 was 6.43.

Molecule O=C(NC1CCS(=O)(=O)CC1)c1nc(C2CC2)cnc1Nc1cncnc1 [Roche-Dataset for PDE10A, Compound 1031] has a pIC50 of 5.00.

Cn1ncc(C(=O)N2CCC2)c1C(=O)Nc1nnc(-c2ccccn2)o1 [Roche-Dataset for PDE10A, Compound 1032] showed a pIC50 of 5.00.

Cn1nccc1NC(=O)c1nc(C2CC2)ccc1Nc1cncnc1 [Roche-Dataset for PDE10A, Compound 1033] was tested, and the pIC50 was 6.98.

Work on Cn1ncc(C(=O)N2CCC2)c1C(=O)Nc1ccn(-c2ccc(Cl)cc2Cl)n1 [Roche-Dataset for PDE10A, Compound 1034] yielded a pIC50 of 5.98.

For Cn1ncc(NC(=O)c2c(C(=O)N3CCC3)cnn2C)c1C(=O)N1CCCCC1 [Roche-Dataset for PDE10A, Compound 1035], the pIC50 was 5.36.

For O=C(Nc1cn(Cc2ccccn2)cn1)c1nc(C2CC2)ccc1Nc1cncnc1 [Roche-Dataset for PDE10A, Compound 1036], the pIC50 was 6.96.

Molecule COC(=O)c1cccc(NC(=O)c2nc(C3CC3)cnc2Nc2cncnc2)n1 [Roche-Dataset for PDE10A, Compound 1037] has a pIC50 of 7.54.

With O=C(NCC1CCC1)c1nc(C2CC2)cnc1Nc1cncnc1 [Roche-Dataset for PDE10A, Compound 1038] the pIC50 was 5.80.

Molecule O=C(c1nc(C2CC2)cnc1Nc1cncnc1)N1CCN(C2CCCC2)CC1 [Roche-Dataset for PDE10A, Compound 1039] has a pIC50 of 5.00.
